Assay results taken from article PMC3456924, “Single-dose pharmacokinetic and toxicity analysis of pyrrole–imidazole polyamides in mice” (Cancer Chemotherapy and Pharmacology, 2012).
Values joined by “and” are separate entries in the source; they are usually repeats but may differ in a detail not shown here. Equal entries are not always repeated. “Also recorded” adds a separate entry of the source. Where two headings read alike, the source gives them in different places. Values belong to the compound of their own block, whether it stands above or below them.

What was measured:
[1] = Plasma pharmacokinetics after a single IV tail vein injection; assay type: in vivo, BALB/C mice; conditions: for half-life / Cmax / AUC(0-inf) / clearance: iv; for concentration at 24 h: 24 h after single IV, read-out: average plasma concentration 24 h postinjection
Protocol: Pyrrole–imidazole polyamide pharmacokinetic studies were performed in 10- to 12-week-old female BALB/C mice (Charles River). Polyamides were solubilized in PBS (1) or PBS/DMSO (2) and administered via intravenous (IV) tail vein injection at concentrations of 7.5 and 5 mg/kg, respectively. For each experiment, groups of 3 animals were euthanized at 0.083, 0.25, 0.5, 1, 2, 4, 8, and 24 h after injection. Animals designated for the 4, 8, and 24 h time points were housed in metabolic cages for collection of urine and feces as described below. All animals used in the pharmacokinetic experiments were performed under an approved protocol at the City of Hope.
Concentrations of polyamides 1 and 2 were analyzed by LC/MS/MS using a Waters Acquity UPLC system (Milford, MA, USA) interfaced with a Waters Quattro Premier XE Mass Spectrometer. HPLC separation was achieved using a Jupiter 4u Proteo 90A 150 × 2.0 mm column (Phenomenex, Torrance, CA, USA) proceeded by a Phenomenex C8 guard column (Torrance, CA, USA). The column temperature was maintained at 30 °C. The mobile phase consisted of A (0.05 % acetic acid in water) and B (0.05 % acetic acid in acetonitrile). The following gradient program was used: 8 % B (0–1 min, 0.3 ml/min), 16 % B (3 min, 0.3 ml/min), 58 % B (6 min, 0.3 ml/min), 90 % B (7 min, 0.3 ml/min), and 8 % B (7.3 min, 0.3 ml/min). The total run time was 11.5 min. The auto-injector temperature was maintained at 5 °C. The strong needle wash solution was 5 % formic acid in MeOH/ACN (2:8) for both compounds, and the weak needle wash solution was 30 % MeOH in water for compound 1 and 50 % ACN in water for compound 2. The electrospray ionization source of the mass spectrometer was operated in positive ion mode with a cone gas flow of 50 L/hr and a desolvation gas flow of 700 L/hr. The capillary voltage was set to 3.2 kV, and the cone and collision cell voltages were optimized to 32 and 27 V for 1 and the INS 3. Voltages were optimized to 31 and 20 V for 2 and the INS 4. The source temperature was 125 °C, and the desolvation temperature was 470 °C. A solvent delay program was used from 0 to 4.0 min and from 6.1 to 11.5 min to minimize the mobile phase to flow to the source. MassLynx version 4.1 software was used for data acquisition and processing.
Plasma and urine samples were prepared for LC/MS/MS analysis by mixing 30 μL of plasma with 20 μL of 50 % MeOH and 50 % aqueous 1 % HOAc. The mixture was vortexed and mixed with an additional 120 μL of 0.5 % HOAc in MeOH/ACN (4:6) and 20 μL of 6.0 μg/mL INS in MeOH/1 % aqueous HOAc (1:1). The mixture was vortexed again for 2 min and centrifuged at the highest setting for 4 min. Next, 20 μL of the supernatant was transferred to a new tube and mixed with 180 μL of 50 % MeOH/ACN (4:6) and 50 % aqueous 1 % HOAc.
Standard curves were prepared mixing untreated plasma with 20 μL of 50 % MeOH and 50 % aqueous 1 % HOAc prepared with various concentrations of 1 and 2. Internal standards were added as described above.
Plasma pharmacokinetic parameters were derived from polyamide concentration profiles using both non-compartmental and compartmental methods. Non-compartmental analysis was performed according to statistical moment theory and the rule of linear trapezoids, while compartmental analysis was performed in ADAPT II [24]. Pharmacokinetic parameters estimated from the non-compartmental analysis include the maximum concentration (C max), the terminal elimination half-life (t 1/2), the mean residence time (MRT), the area under the concentration curve (AUC0–24h), the AUC extrapolated to infinity (AUC0–∞), and the clearance (CL). Additional plasma pharmacokinetic parameters determined from the compartmental analysis include the alpha and beta half-lives (t 1/2) and the apparent volume of distribution (V d). Tissue pharmacokinetic parameters were determined non-compartmentally and included the C max and AUC0–24h. […]

C57BL/6 mice = assay: Toxicity (weight loss, signs of duress) after a single SC injection; conditions: for additional signs of duress / dose level with critical (>15 %) / dose-limiting weight loss: single SC injection, 7-day observation
Text: Four animals were used in each group unless otherwise noted.

Aqueous solubility = assay type: physicochemical; conditions: 2 requires a polar aprotic cosolvent like DMSO for administration
[2] = parameters: method as in PMID 19413319; conditions: previous ADMET study; cited from earlier work
[3] = system: 5′-WGWWCW-3′ sequence (androgen response element DNA); parameters: method as in PMID 18459783, PMID 22080545, PMID 17566103; conditions: cited from earlier work
[4] = female, BALB/C, mouse, plasma, compartmental analysis, single IV, 7.5 mg/kg (1), 5 mg/kg (2)
[5] = female, BALB/C, mouse, plasma, non-compartmental analysis, single IV, 7.5 mg/kg (1), 5 mg/kg (2)
[6] = female, BALB/C, mouse, plasma, 7.5 mg/kg (1), 5 mg/kg (2)
[7] = plasma, compartmental analysis, single IV, 7.5 mg/kg (1), 5 mg/kg (2)
[8] = plasma, non-compartmental analysis, single IV, 7.5 mg/kg (1), 5 mg/kg (2)

- half-life ([1]; female, BALB/C, mouse, plasma, plasma, compartmental analysis, single IV, 7.5 mg/kg (1), 5 mg/kg (2), read-out: t 1/2 α (initial) (converted)): 0.5 h
- half-life ([1]; female, BALB/C, mouse, plasma, plasma, compartmental analysis, single IV, 7.5 mg/kg (1), 5 mg/kg (2), read-out: t 1/2 β (terminal) (converted)): 4.6 h
- half-life ([1]; female, BALB/C, mouse, plasma, plasma, non-compartmental analysis, single IV, 7.5 mg/kg (1), 5 mg/kg (2), read-out: Elimination t 1/2 (converted)): 5.2 h
- Cmax ([1]; female, BALB/C, mouse, plasma, compartmental analysis (2-compartment model), single IV, 7.5 mg/kg (1), 5 mg/kg (2)): 43600 ng/mL
- AUC(0-inf) [1, 4]: 67500 ng·h/mL
- clearance [1, 4]: 0.035 mL/min
- AUC(0-inf) [1, 5]: 77400 ng·h/mL
- clearance [1, 5]: 0.03 mL/min
- Cmax ([1]; female, BALB/C, mouse, plasma, non-compartmental analysis, single IV, 7.5 mg/kg (1), 5 mg/kg (2), mean ± S.D., n = 3): 49400 ± 11200 ng/mL
- concentration at 24 h [1, 6]: 210 ± 100 ng/mL
- Vd ([1]; female, BALB/C, mouse, plasma, compartmental analysis, single IV, 7.5 mg/kg (1), 5 mg/kg (2), read-out: V d): 0.0081 L
- AUC(0-t) [1, 5]: 75800 ng·h/mL
- MRT ([1]; female, BALB/C, mouse, plasma, non-compartmental analysis, single IV, 7.5 mg/kg (1), 5 mg/kg (2), read-out: MRT): 3.3 h
- maximum plasma concentration relative to effective concentration for PSA mRNA downregulation in cell culture ([1]; plasma C max vs cell culture effective concentration): over 3 times
Structure (SMILES): CN(CCCNC(=O)c1cccc(C(=O)O)c1)CCCNC(=O)c1cc(NC(=O)c2cc(NC(=O)c3cc(NC(=O)c4nc(NC(=O)[C@H](N)CCNC(=O)c5cc(NC(=O)c6cc(NC(=O)c7cc(NC(=O)c8nccn8C)cn7C)cn6C)cn5C)cn4C)cn3C)cn2C)cn1C [Polyamide 1]
- additional signs of duress (C57BL/6 mice): no additional sign of duress was observed
- dose level with critical (>15 %) / dose-limiting weight loss (C57BL/6 mice): 10 mg/kg

Structure (SMILES): CC(=O)N[C@@H](CNC(=O)c1cc(NC(=O)c2cc(NC(=O)c3cc(NC(=O)c4nccn4C)cn3C)cn2C)cn1C)CC(=O)Nc1cn(C)c(C(=O)Nc2cc(C(=O)Nc3cc(C(=O)Nc4cc(C(=O)NCCCN(C)CCCNC(=O)c5cccc(C(=O)O)c5)n(C)c4)n(C)c3)n(C)c2)n1 [Polyamide 2]
- concentration at 24 h [1, 6]: 490 ± 200 ng/mL
- C max ([1]; plasma, compartmental analysis (2-compartment model), single IV, 7.5 mg/kg (1), 5 mg/kg (2)): 40200 ng/mL
- AUC0–∞ [1, 7]: 144800 ng·h/mL
- CL [1, 7]: 0.7 mL/h
- Vd [1, 7]: 0.004 L
- t 1/2 α (initial) [1, 7]: 6 min
- t 1/2 β (terminal) [1, 7]: 4.2 h
- AUC0–t [1, 8]: 173500 ng·h/mL
- AUC0–∞ [1, 8]: 176500 ng·h/mL
- CL [1, 8]: 0.6 mL/h
- Elimination t 1/2 [1, 8]: 4.3 h
- MRT [1, 8]: 4.9 h
- C max ([1]; plasma, non-compartmental analysis, single IV, 7.5 mg/kg (1), 5 mg/kg (2), mean ± S.D., n = 3): 41300 ± 5900 ng/mL
- solubility in aqueous solutions (Aqueous solubility): less soluble than 1; also recorded: relatively poor aqueous solubility
- liver microsomal degradation [2]: resistant to liver microsomal degradation
- DNA-binding ability relative to polyamide 1 [3]: without significant changes to its DNA-binding ability
- relative toxicity in weight curve experiments (C57BL/6 mice; single SC injection of 1 and 2): more toxic
- additional signs of duress (C57BL/6 mice): multiple signs of duress such as loss of ambulation and hunched posture in addition to weight loss; also recorded: additional signs of physical duress in addition to weight loss at all concentrations except 1.1 mg/kg
- dose level with critical (>15 %) / dose-limiting weight loss (C57BL/6 mice): 4.5 mg/kg and 2.3 mg/kg
